Source: patent US20240239861A1, “GLUCAGON-RECEPTOR SELECTIVE POLYPEPTIDES AND METHODS OF USE THEREOF” (i2O Therapeutics, Inc., priority 2016, published 2024)
Read-outs that look alike come from different tables or passages of the source. *1 amine or outer side, *2 acyl side, *3 side chain or, on linkers, in order; H or OH if unused. Where a SMILES comes first, the peptide text is derived from it. Side-chain parts run from the residue outwards. [ ]: non-standard residue; d: D form. The star is where a group is joined. γGlu = O=C(O)[C@H](CCC(=O)[*:2])N[*:1]; Palmitoyl = CCCCCCCCCCCCCCCC(=O)*; Aib = CC(C)(N)C(=O)O

Experiments:
human GLP-1R = human GLP-1R (Homo sapiens, UniProt P43220); test: Peptide-receptor mediated cAMP accumulation (LANCE Ultra cAMP) in CHO-K1 cells transfected with human GLP-1R; type: cell-based
human GCGR = human GCGR (Homo sapiens, UniProt P47871); test: Peptide-receptor mediated cAMP accumulation (LANCE Ultra cAMP) in CHO-K1 cells transfected with human GCGR; type: cell-based
[1] = Table 7, GLP-1R, read-out: GLP-1R pEC50 (converted)
[2] = read-out: GluR pEC50 (converted)
[3] = hGLP1 pEC50 (cAMP mean (n = 3): 11 point curve starting at 1 nM, Table 3)

Sequence of human GLP-1R (P43220 24-463): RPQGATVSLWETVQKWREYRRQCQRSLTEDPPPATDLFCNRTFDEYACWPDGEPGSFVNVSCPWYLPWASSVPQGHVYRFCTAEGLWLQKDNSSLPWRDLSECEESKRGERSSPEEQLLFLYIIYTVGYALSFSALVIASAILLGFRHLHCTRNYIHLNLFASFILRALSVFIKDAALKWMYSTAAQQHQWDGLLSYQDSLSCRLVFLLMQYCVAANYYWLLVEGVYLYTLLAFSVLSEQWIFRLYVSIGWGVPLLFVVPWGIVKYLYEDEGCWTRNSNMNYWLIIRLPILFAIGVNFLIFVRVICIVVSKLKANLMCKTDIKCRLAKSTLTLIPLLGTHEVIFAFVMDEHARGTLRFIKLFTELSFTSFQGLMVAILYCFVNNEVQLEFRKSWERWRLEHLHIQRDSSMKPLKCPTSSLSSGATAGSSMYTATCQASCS
Sequence of human GCGR (P47871 26-477): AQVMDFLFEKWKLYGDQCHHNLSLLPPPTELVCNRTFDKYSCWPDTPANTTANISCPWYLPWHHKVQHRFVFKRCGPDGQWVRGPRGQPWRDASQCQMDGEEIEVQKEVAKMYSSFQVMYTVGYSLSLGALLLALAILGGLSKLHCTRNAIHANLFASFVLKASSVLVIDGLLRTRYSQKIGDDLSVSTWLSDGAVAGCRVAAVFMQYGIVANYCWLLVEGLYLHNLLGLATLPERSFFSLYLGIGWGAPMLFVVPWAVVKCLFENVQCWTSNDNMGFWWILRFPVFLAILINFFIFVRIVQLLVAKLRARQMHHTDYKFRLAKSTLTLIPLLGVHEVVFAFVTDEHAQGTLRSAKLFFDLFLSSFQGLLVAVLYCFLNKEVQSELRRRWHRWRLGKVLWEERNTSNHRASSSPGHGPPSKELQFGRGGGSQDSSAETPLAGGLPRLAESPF

EC50 (human GLP-1R; [1]) | EC50 (human GCGR; [2]) | Structure (SMILES) | EC50 (human GLP-1R; [3]) | EC50 (human GCGR; Table 3)
> 1000 nM | 0.0316 nM | CCCCCCCCCCCCCCCC(=O)N[C@@H](CCC(=O)NCCCC[C@H](NC(=O)[C@H](CO)NC(=O)[C@H](CO)NC(=O)[C@@H]1CCCN1C(=O)[C@H](CCC(=O)O)NC(=O)[C@H](CC(=O)O)NC(=O)[C@H](CCC(=O)O)NC(=O)[C@H](CC(C)C)NC(=O)[C@H](Cc1c[nH]c2ccccc12)NC(=O)[C@@H](NC(=O)[C@@H](NC(=O)[C@H](Cc1ccccc1)NC(=O)[C@H](CCC(=O)O)NC(=O)[C@H](CCC(N)=O)NC(=O)[C@H](C)NC(=O)[C@H](CCCNC(=N)N)NC(=O)[C@H](CCCCN)NC(=O)C(C)(C)NC(=O)[C@H](CC(=O)O)NC(=O)[C@H](CC(C)C)NC(=O)[C@H](Cc1ccc(O)cc1)NC(=O)[C@H](CCCCN)NC(=O)[C@H](CO)NC(=O)[C@H](Cc1ccc(O)cc1)NC(=O)[C@H](CC(=O)O)NC(=O)[C@H](CO)NC(=O)[C@@H](NC(=O)[C@H](Cc1ccccc1)NC(=O)[C@@H](NC(=O)CNC(=O)[C@H](Cc1c[nH]cn1)NC(=O)[C@H](CO)NC(=O)[C@@H](N)Cc1ccc(O)cc1)[C@@H](C)O)[C@@H](C)O)C(C)C)[C@@H](C)CC)C(=O)N[C@@H](C)C(=O)N1CCC[C@H]1C(=O)N1CCC[C@H]1C(=O)N1CCC[C@H]1C(=O)N[C@@H](CO)C(=O)O)C(=O)O [Compound B25] |  | 
 |  | CC(C)C[C@H](NC(=O)[C@H](Cc1ccc(O)cc1)NC(=O)[C@H](CCCCN)NC(=O)[C@H](CO)NC(=O)[C@H](Cc1ccc(O)cc1)NC(=O)[C@H](CC(=O)O)NC(=O)[C@H](CO)NC(=O)[C@@H](NC(=O)[C@H](Cc1ccccc1)NC(=O)[C@@H](NC(=O)CNC(=O)[C@H](Cc1c[nH]cn1)NC(=O)[C@H](CO)NC(=O)[C@@H](N)Cc1ccc(O)cc1)[C@@H](C)O)[C@@H](C)O)C(=O)N[C@@H](CC(=O)O)C(=O)NC(C)(C)C(=O)N[C@@H](CCC(=O)O)C(=O)N[C@@H](CCCNC(=N)N)C(=O)N[C@@H](C)C(=O)N[C@@H](CCC(N)=O)C(=O)N[C@@H](CCC(=O)O)C(=O)N[C@@H](Cc1ccccc1)C(=O)N[C@H](C(=O)NC(C)(C)C(=O)N[C@@H](Cc1c[nH]c2ccccc12)C(=O)N[C@@H](CC(C)C)C(=O)N[C@@H](CCC(=O)O)C(=O)N[C@@H](CC(=O)O)C(=O)N[C@@H](CCC(=O)O)C(=O)N1CCC[C@H]1C(=O)N[C@@H](CO)C(=O)N[C@@H](CO)C(=O)NCC(=O)N[C@@H](C)C(=O)N1CCC[C@H]1C(=O)N1CCC[C@H]1C(=O)N1CCC[C@H]1C(=O)N[C@@H](CO)C(=O)O)C(C)C [Compound A17] (H-YSHGTFTSDYSKYLD[Aib]ERAQEFV[Aib]WLEDEPSSGAPPPS-OH) | > 1 nM | 0.00794 nM
> 1000 nM | 0.158 nM | CCCCCCCCCCCCCCCC(=O)N[C@@H](CCC(=O)NCCCC[C@H](NC(=O)[C@@H](NC(=O)[C@H](Cc1ccccc1)NC(=O)[C@H](CCC(=O)O)NC(=O)[C@H](CCC(N)=O)NC(=O)[C@H](C)NC(=O)[C@H](CCCNC(=N)N)NC(=O)[C@H](C)NC(=O)[C@H](C)NC(=O)[C@H](CC(=O)O)NC(=O)[C@H](CC(C)C)NC(=O)[C@H](Cc1ccc(O)cc1)NC(=O)[C@H](CCCCN)NC(=O)[C@H](CO)NC(=O)[C@H](Cc1ccc(O)cc1)NC(=O)[C@H](CC(=O)O)NC(=O)[C@H](CO)NC(=O)[C@@H](NC(=O)[C@H](Cc1ccccc1)NC(=O)[C@@H](NC(=O)CNC(=O)[C@H](CCC(N)=O)NC(=O)[C@H](CO)NC(=O)[C@@H](N)Cc1ccc(O)cc1)[C@@H](C)O)[C@@H](C)O)C(C)C)C(=O)N[C@@H](Cc1c[nH]c2ccccc12)C(=O)N[C@@H](CC(C)C)C(=O)N[C@@H](CCC(=O)O)C(=O)N[C@@H](CC(=O)O)C(=O)N[C@@H](CCC(=O)O)C(=O)N1CCC[C@H]1C(=O)N[C@@H](CCCCN)C(=O)N[C@@H](CO)C(=O)N[C@@H](CCCCN)C(=O)N[C@@H](CO)C(=O)N1CCC[C@H]1C(=O)N1CCC[C@H]1C(=O)N1CCC[C@H]1C(=O)N[C@@H](CO)C(N)=O)C(=O)O [Compound B34] (H-YSQGTFTSDYSKYLDAARAQEFVK([γGlu-Palmitoyl])WLEDEPKSKSPPPS-NH2) |  | 
7.94 nM | 0.00316 nM | CCCCCCCCCCCCCCCC(=O)N[C@@H](CCC(=O)NCCCC[C@H](NC(=O)[C@H](CC(=O)O)NC(=O)[C@H](CO)NC(=O)[C@@H](NC(=O)[C@H](Cc1ccccc1)NC(=O)[C@@H](NC(=O)CNC(=O)[C@H](CCC(N)=O)NC(=O)[C@H](CO)NC(=O)[C@@H](N)Cc1ccc(O)cc1)[C@@H](C)O)[C@@H](C)O)C(=O)N[C@@H](CO)C(=O)N[C@@H](CCCCN)C(=O)N[C@@H](Cc1ccc(O)cc1)C(=O)N[C@@H](CC(C)C)C(=O)N[C@@H](CC(=O)O)C(=O)N[C@@H](C)C(=O)N[C@@H](C)C(=O)N[C@@H](CCCNC(=N)N)C(=O)N[C@@H](C)C(=O)N[C@@H](CCC(N)=O)C(=O)N[C@@H](CCC(=O)O)C(=O)N[C@@H](Cc1ccccc1)C(=O)N[C@H](C(=O)N[C@@H](CCCCN)C(=O)N[C@@H](Cc1c[nH]c2ccccc12)C(=O)N[C@@H](CC(C)C)C(=O)N[C@@H](CCC(=O)O)C(=O)N[C@@H](CC(=O)O)C(=O)N[C@@H](CCC(=O)O)C(=O)N1CCC[C@H]1C(=O)N[C@@H](CCCCN)C(=O)N[C@@H](CO)C(=O)N[C@@H](CCCCN)C(=O)N[C@@H](CO)C(=O)N1CCC[C@H]1C(=O)N1CCC[C@H]1C(=O)N1CCC[C@H]1C(=O)N[C@@H](CO)C(N)=O)C(C)C)C(=O)O [Compound B36] (H-YSQGTFTSDK([γGlu-Palmitoyl])SKYLDAARAQEFVKWLEDEPKSKSPPPS-NH2) |  | 
 |  | CC(C)C[C@H](NC(=O)[C@H](Cc1c[nH]c2ccccc12)NC(=O)[C@H](CC(C)C)NC(=O)[C@@H](NC(=O)[C@H](Cc1ccccc1)NC(=O)[C@H](CCC(=O)O)NC(=O)[C@H](CCC(N)=O)NC(=O)[C@H](C)NC(=O)[C@H](CCCNC(=N)N)NC(=O)[C@H](CCCCN)NC(=O)C(C)(C)NC(=O)[C@H](CC(=O)O)NC(=O)[C@H](CC(C)C)NC(=O)[C@H](Cc1ccc(O)cc1)NC(=O)[C@H](CCCCN)NC(=O)[C@H](CO)NC(=O)[C@H](Cc1ccc(O)cc1)NC(=O)[C@H](CC(=O)O)NC(=O)[C@H](CO)NC(=O)[C@@H](NC(=O)[C@H](Cc1ccccc1)NC(=O)[C@@H](NC(=O)CNC(=O)[C@H](Cc1c[nH]cn1)NC(=O)[C@H](CO)NC(=O)[C@@H](N)Cc1ccc(O)cc1)[C@@H](C)O)[C@@H](C)O)C(C)C)C(=O)N[C@@H](CCC(=O)O)C(=O)N[C@@H](CC(=O)O)C(=O)N[C@@H](CCC(=O)O)C(=O)N1CCC[C@H]1C(=O)N[C@@H](CO)C(=O)N[C@@H](CO)C(=O)NCC(=O)N[C@@H](C)C(=O)N1CCC[C@H]1C(=O)N1CCC[C@H]1C(=O)N1CCC[C@H]1C(=O)N[C@@H](CO)C(=O)O [Compound A53] (H-YSHGTFTSDYSKYLD[Aib]KRAQEFVLWLEDEPSSGAPPPS-OH; N-terminus assumed) | > 1 nM | 0.00251 nM
 |  | CC(C)C[C@H](NC(=O)[C@H](Cc1ccc(O)cc1)NC(=O)[C@H](CCCCN)NC(=O)[C@H](CO)NC(=O)[C@H](Cc1ccc(O)cc1)NC(=O)[C@H](CC(=O)O)NC(=O)[C@H](CO)NC(=O)[C@@H](NC(=O)[C@H](Cc1ccccc1)NC(=O)[C@@H](NC(=O)CNC(=O)[C@H](Cc1c[nH]cn1)NC(=O)[C@@H](NC(=O)[C@@H](N)Cc1ccc(O)cc1)[C@@H](C)O)[C@@H](C)O)[C@@H](C)O)C(=O)N[C@@H](CC(=O)O)C(=O)NC(C)(C)C(=O)N[C@@H](C)C(=O)N[C@@H](CCCNC(=N)N)C(=O)N[C@@H](C)C(=O)N[C@@H](CCC(N)=O)C(=O)N[C@@H](CCC(=O)O)C(=O)N[C@@H](Cc1ccccc1)C(=O)N[C@H](C(=O)NC(C)(C)C(=O)N[C@@H](Cc1c[nH]c2ccccc12)C(=O)N[C@@H](CC(C)C)C(=O)N[C@@H](CCC(=O)O)C(=O)N[C@@H](CC(=O)O)C(=O)N[C@@H](CCC(=O)O)C(=O)N1CCC[C@H]1C(=O)N[C@@H](CO)C(=O)N[C@@H](CO)C(=O)NCC(=O)N[C@@H](C)C(=O)N1CCC[C@H]1C(=O)N1CCC[C@H]1C(=O)N1CCC[C@H]1C(=O)N[C@@H](CO)C(=O)O)C(C)C [Compound A64] (H-YTHGTFTSDYSKYLD[Aib]ARAQEFV[Aib]WLEDEPSSGAPPPS-OH; N-terminus assumed) | > 1 nM | 0.02 nM
 |  | CC(C)C[C@H](NC(=O)[C@H](Cc1ccc(O)cc1)NC(=O)[C@H](CCCCN)NC(=O)[C@H](CO)NC(=O)[C@H](Cc1ccc(O)cc1)NC(=O)[C@H](CC(=O)O)NC(=O)[C@H](CO)NC(=O)[C@@H](NC(=O)[C@H](Cc1ccccc1)NC(=O)[C@@H](NC(=O)CNC(=O)[C@H](Cc1c[nH]cn1)NC(=O)[C@H](CO)NC(=O)[C@@H](N)Cc1ccc(O)cc1)[C@@H](C)O)[C@@H](C)O)C(=O)N[C@@H](CC(=O)O)C(=O)NC(C)(C)C(=O)N[C@@H](CCCCN)C(=O)N[C@@H](CCCNC(=N)N)C(=O)N[C@@H](C)C(=O)N[C@@H](CCC(N)=O)C(=O)N[C@@H](CCC(=O)O)C(=O)N[C@@H](Cc1ccccc1)C(=O)N[C@H](C(=O)NC(C)(C)C(=O)N[C@@H](Cc1c[nH]c2ccccc12)C(=O)N[C@@H](CC(C)C)C(=O)N[C@@H](CCC(=O)O)C(=O)N[C@@H](CC(=O)O)C(=O)N[C@@H](CCC(=O)O)C(=O)N[C@@H](CCC(=O)O)C(=O)N[C@@H](CCC(=O)O)C(=O)N1CCC[C@H]1C(=O)N[C@@H](CO)C(=O)N[C@@H](CO)C(=O)NCC(=O)N[C@@H](C)C(=O)N1CCC[C@H]1C(=O)N1CCC[C@H]1C(=O)N1CCC[C@H]1C(=O)N[C@@H](CO)C(=O)O)C(C)C [Compound A11] (H-YSHGTFTSDYSKYLD[Aib]KRAQEFV[Aib]WLEDEEEPSSGAPPPS-OH; N-terminus assumed) | > 1 nM | 0.00631 nM
